Test results: BindingDB's records for doi:10.1016/j.ejmech.2023.115180 (Damanhour University, 2023)

Experiment: Inhibition of LOX (unknown origin) using arachidonic/linoleic acid as substrate preincubated for 5 mins followed by substrate addition measured after 10 mins by absorbance based assay

SMILES	IC50
Nc1c(C(=O)N/N=C/c2ccccc2)cnn1-c1ccc(S(N)(=O)=O)cc1	2400 nM
Nc1c(C(=O)N/N=C/c2cccs2)cnn1-c1ccc(S(N)(=O)=O)cc1	2500 nM
